Test results taken from US20170114021A1, “HALOGEN-SUBSTITUTED COMPOUNDS” (priority 2014, published 2017).

Legend:
Ctenocephalides felis = Ctenocephalides felis oral test (CTECFE); assay type: in vivo; conditions: application rate 20 ppm in citrated cattle blood; after 2 days
Description: Ctenocephalides felis—Oral Test (CTECFE) Solvent: dimethyl sulphoxide
To produce a suitable preparation of active compound, 10 mg of active compound are mixed with 0.5 ml of dimethyl sulphoxide. Dilution with citrated cattle blood gives the desired concentration.
About 20 unfed adult cat fleas (Ctenocephalides felis) are placed into a chamber which is closed at the top and bottom with gauze. A metal cylinder whose bottom end is closed with parafilm is placed onto the chamber. The cylinder contains the blood/active compound preparation, which can be imbibed by the fleas through the parafilm membrane.
After 2 days, the kill in % is determined. 100% means that all of the fleas have been killed; 0% means that none of the fleas have been killed.

Rhipicephalus sanguineus = Rhipicephalus sanguineus in vitro contact test; assay type: in vivo; conditions: application rate 5 μg/cm^2; adult dog ticks; after 48 h
Description: Rhipicephalus sanguineus—In Vitro Contact Tests
For the coating of the test tubes, 9 mg of active compound are first dissolved in 1 ml of acetone p.a. and then diluted to the desired concentration with acetone p.a. 250 μl of the solution are distributed homogeneously on the inner walls and the base of a 25 ml test tube by turning and rocking on an orbital shaker (rocking rotation at 30 rpm for 2 h). With 900 ppm active compound solution and internal surface 44.7 cm^2, given homogeneous distribution, an area-based dose of 5 μg/cm^2 is achieved.
After the solvent has evaporated off, the tubes are populated with 5-10 adult dog ticks (Rhipicephalus sanguineus), sealed with a perforated plastic lid and incubated in a horizontal position in the dark at room temperature and ambient humidity. After 48 h, efficacy is determined. To this end, the ticks are knocked to the floor of the tube and incubated on a hotplate at 45-50° C. for not more than 5 min. Ticks which remain motionless on the floor or move in such an uncoordinated manner that they are unable to deliberately avoid the heat by climbing upwards are considered to be dead or moribund.
An efficacy of 100% means that all the ticks were dead or moribund. 0% efficacy means that none of the ticks had been harmed.

[1] = log P by HPLC on reversed-phase column (C18), EEC Directive 79/831 Annex V.A8; assay type: physicochemical
Description: ^a) Unless indicated otherwise, the following method was used to determine the log P values and masses: The determination of the given log P values was carried out in accordance with EEC Directive 79/831 Annex V.A8 by HPLC (High Performance Liquid Chromatography) on a reversed-phase column (C18). Agilent 1100 LC system; 50*4.6 Zorbax Eclipse Plus C18 1.8 micron; mobile phase A: acetonitrile (0.1% formic acid); mobile phase B: water (0.09% formic acid); linear gradient from 10% acetonitrile to 95% acetonitrile in 4.25 min, then 95% acetonitrile for a further 1.25 min; oven temperature 55° C.; flow rate: 2.0 ml/min. Mass detection is effected by means of an Agilend MSD system.

Amblyomma hebraeum = assay: Amblyomma hebaraeum test (AMBYHE), tick nymph immersion; assay type: in vivo; conditions: application rate 20 ppm; tick nymphs; after 42 days
Description: Amblyomma hebaraeum Test (AMBYHE) Solvent: dimethyl sulphoxide
(§1) To produce a suitable preparation of active compound, 10 mg of active compound are mixed with 0.5 ml of dimethyl sulphoxide, and the concentrate is diluted with water to the desired concentration.
Tick nymphs (Amblyomma hebraeum) are placed into perforated plastic beakers and immersed in the desired concentration for one minute. The ticks are transferred on filter paper into a Petri dish and stored in a climate-controlled cabinet.
After 42 days, the kill in % is determined. 100% means that all of the ticks have been killed; 0% means that none of the ticks have been killed.

Boophilus microplus = Boophilus microplus injection test (BOOPMI Inj); assay type: in vivo; conditions: application rate 4 μg/animal; injection into abdomen
Description: Boophilus microplus—Injection Test (BOOPMI Inj) Solvent: dimethyl sulphoxide
To produce a suitable preparation of active compound, 10 mg of active compound are mixed with 0.5 ml of solvent and the concentrate is diluted with solvent to the desired concentration.
1 μl of the active compound solution is injected into the abdomen of 5 engorged adult female cattle ticks (Boophilus microplus). The animals are transferred into dishes and kept in a climate-controlled room.
The activity is assessed after the desired time by laying of fertile eggs. Eggs which are not visibly fertile are stored in a climate-controlled cabinet until the larvae hatch after about 42 days. An efficacy of 100% means that none of the ticks has laid any fertile eggs; 0% means that all the eggs are fertile.

Musca domestica = Musca domestica test (MUSCDO); assay type: in vivo; conditions: application rate 20 ppm; adult houseflies; after 2 days
Description: Musca domestica-Test (MUSCDO) Solvent: dimethyl sulphoxide
as §1
Vessels containing a sponge treated with sugar solution and the active compound preparation of the desired concentration are populated with 10 adult houseflies (Musca domestica).
After 2 days, the kill in % is determined. 100% means that all of the flies have been killed; 0% means that none of the flies have been killed.

Myzus persicae = Myzus persicae spray test (MYZUPE); assay type: in vivo; conditions: application rate 100 g/ha; Chinese cabbage leaf discs; after 6 days
Description: Myzus persicae—Spray Test (MYZUPE) Solvent: 78 parts by weight of acetone • • 1.5 parts by weight of dimethylformamide Emulsifier: alkylaryl polyglycol ether
(§2) To produce a suitable preparation of active compound, 1 part by weight of active compound is dissolved using the specified parts by weight of solvent and made up with water containing an emulsifier concentration of 1000 ppm until the desired concentration is attained. To produce further test concentrations, the preparation is diluted with emulsifier-containing water.
Discs of Chinese cabbage leaves (Brassica pekinensis) infested by all stages of the green peach aphid (Myzus persicae) are sprayed with an active compound preparation of the desired concentration.
After 6 days, efficacy in % is determined. 100% means that all the aphids have been killed; 0% means that no aphids have been killed.

Spodoptera frugiperda = Spodoptera frugiperda spray test (SPODFR); assay type: in vivo; conditions: application rate 100 g/ha; maize leaf discs; after 7 days
Description: Spodoptera frugiperda—Spray Test (SPODFR)
Solvent: 78.0 parts by weight of acetone • • 1.5 parts by weight of dimethylformamide Emulsifier: alkylaryl polyglycol ether
as §2
Leaf discs of maize (Zea mays) are sprayed with an active compound preparation of the desired concentration and, after drying, populated with caterpillars of the armyworm (Spodoptera frugiperda).
After 7 days, efficacy in % is determined. 100% means that all the caterpillars have been killed; 0% means that no caterpillars have been killed.

Phaedon cochleariae = Phaedon cochleariae spray test (PHAECO); assay type: in vivo; conditions: application rate 100 g/ha; Chinese cabbage leaf discs; after 7 days
Description: Phaedon cochleariae—Spray Test (PHAECO) Solvent: 78.0 parts by weight of acetone • • 1.5 parts by weight of dimethylformamide Emulsifier: alkylaryl polyglycol ether
as §2
After 7 days, efficacy in % is determined. 100% means that all the beetle larvae have been killed; 0% means that no beetle larvae have been killed.

## N-{2-fluoro-5-[2′-methyl-5′-(pentafluoroethyl)-4′-(trifluoromethyl)-2′H-1,3′-bipyrazol-4-yl]benzyl}propanamide [Ic-1]
Ctenocephalides felis
  efficacy (kill): 100%
Rhipicephalus sanguineus
  efficacy: 100%
[1]
  log P: 3.83
Amblyomma hebraeum
  efficacy (kill): 100%
Boophilus microplus
  efficacy (laying of fertile eggs): 100%
Musca domestica
  efficacy (kill): 100%
Myzus persicae
  efficacy: 90%
Spodoptera frugiperda
  efficacy: 100%
Phaedon cochleariae
  efficacy: 100%
